Our source for the IC50 and EC50 values is patent US20250034136A1 (Nimbus Wadjet, Inc., priority 2023, published 2025).

Structures are written as SMILES. Where two headings read alike, the source gives them in different places.

For assay [1], the target named is WRN (BV08), human Werner helicase (Uniprot Q14191, amino acids 517-1235 with L1074F point mutation) (Homo sapiens (Human), UniProt Q14191, L1074F). As to the kind of experiment: WRN (BV08) ADP-Glo assay. The format is biochemical. Particulars: class symbols A-E, read-out: ADP-Glo_hWRN_IC50.
Assay [2] concerns p21 induction in HCT116 cells. As to the kind of experiment: p21 induction in HCT116 cells. The assay is classed as cell-based. Particulars: HCT116 cells, 24 h compound incubation, read-out: P21_EC50. The essentials:
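HCT116 cells, 2,000/well, treated 24 h at 37 °C with 11-point compound dilutions in duplicate. Fixed, then immunostained for p21 and GAPDH and read by near-IR imaging at 800/700 nm. Normalized to DMSO (low) and reference WRN inhibitor (high) controls; EC50 from non-linear regression.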

WRN (BV08), human Werner helicase (Uniprot Q14191, amino acids 517-1235 with L1074F point mutation), sequence (Q14191 other isoform, or with tags, fused parts or gaps L1074F (already in the parent)): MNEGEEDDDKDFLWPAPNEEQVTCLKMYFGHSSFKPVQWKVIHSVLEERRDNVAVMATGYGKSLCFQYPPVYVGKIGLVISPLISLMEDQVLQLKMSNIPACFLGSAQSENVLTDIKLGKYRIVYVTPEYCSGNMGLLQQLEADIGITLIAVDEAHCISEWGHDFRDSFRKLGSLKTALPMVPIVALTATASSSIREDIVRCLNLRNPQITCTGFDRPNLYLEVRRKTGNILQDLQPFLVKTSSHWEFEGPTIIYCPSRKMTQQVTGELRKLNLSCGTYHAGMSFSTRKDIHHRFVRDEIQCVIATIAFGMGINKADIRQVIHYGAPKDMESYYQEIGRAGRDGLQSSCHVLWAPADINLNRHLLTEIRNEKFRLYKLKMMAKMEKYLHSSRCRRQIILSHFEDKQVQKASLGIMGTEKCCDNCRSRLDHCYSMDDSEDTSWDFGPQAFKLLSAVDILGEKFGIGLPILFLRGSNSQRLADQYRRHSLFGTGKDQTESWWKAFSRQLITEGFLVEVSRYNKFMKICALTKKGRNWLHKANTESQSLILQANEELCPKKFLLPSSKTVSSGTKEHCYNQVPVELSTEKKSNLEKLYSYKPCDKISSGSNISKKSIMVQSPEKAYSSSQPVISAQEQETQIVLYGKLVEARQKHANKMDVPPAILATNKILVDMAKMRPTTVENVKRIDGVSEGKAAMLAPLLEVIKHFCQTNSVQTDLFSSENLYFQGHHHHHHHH

For the compound `CCc1c(N2CCN(C(=O)c3ncnc(C)c3O)CC2)c(=O)c2nc(N3CCn4nccc43)cnc2n1CC(=O)Nc1ccc(C(F)(F)F)cc1Cl` [I-91, N-(2-chloro-4-(trifluoromethyl)phenyl)-2-(2-(2,3-dihydro-1H-imidazo[1,2-b]pyrazol-1-yl)-6-ethyl-7-(4-(5-hydroxy-6-methylpyrimidine-4-carbonyl)piperazin-1-yl)-8-oxopyrido[2,3-b]pyrazin-5(8H)-yl)acetamide], the IC50 in assay [1] was in the range of 5 to 50 nM. For the same compound, the EC50 in assay [2] (Homo sapiens, HCT-116, 24 h) was more than 5000 nM.
The corresponding values for `CCc1c(N2CCN(C(=O)c3ncnc(C)c3O)CC2)c(=O)c2nc(C=C3CCCC3)cnc2n1CC(=O)Nc1ccc(C(F)(F)F)cc1Cl` [I-166, N-[2-chloro-4-(trifluoromethyl)phenyl]-2-[2-(cyclopentylidenemethyl)-6-ethyl-7-[4-(5-hydroxy-6-methylpyrimidine-4-carbonyl)piperazin-1-yl]-8-oxo-5H,8H-pyrido[2,3-b]pyrazin-5-yl]acetamide] are not above 5 nM and 500 to 2000 nM.
Take `CCc1c(N2CCN(C(=O)c3ncnc(C)c3O)[C@H]3CC[C@@H]32)c(=O)c2nc(-c3ccnc(OC)c3)cnc2n1CC(=O)Nc1ccc(C(F)(F)F)cc1Cl` [I-283, N-[2-chloro-4-(trifluoromethyl)phenyl]-2-{6-ethyl-7-[(1S,6S)-5-(5-hydroxy-6-methylpyrimidine-4-carbonyl)-2,5-diazabicyclo[4.2.0]octan-2-yl]-2-(2-methoxypyridin-4-yl)-8-oxo-5H,8H-pyrido[2,3-b]pyrazin-5-yl}acetamide]: the IC50 in assay [1] is not above 5 nM. For the same compound, in assay [2] (Homo sapiens, HCT-116, 24 h), the EC50 is less than 500 nM.
The corresponding values for `CCc1c(N2CCN(C(=O)c3ncnc(C)c3O)[C@H]3CC[C@@H]32)c(=O)c2nc(N(C)[C@H]3CC[C@@H](O)C3)cnc2n1CC(=O)Nc1ccc(C(F)(F)F)cc1Cl` [I-302, N-[2-chloro-4-(trifluoromethyl)phenyl]-2-{6-ethyl-7-[(1S,6S)-5-(5-hydroxy-6-methylpyrimidine-4-carbonyl)-2,5-diazabicyclo[4.2.0]octan-2-yl]-2-{[(1S,3R)-3-hydroxycyclopentyl](methyl)amino}-8-oxo-5H,8H-pyrido[2,3-b]pyrazin-5-yl}acetamide] are 5 to 50 nM and less than 500 nM.
On to `CCc1c(N2CCN(C(=O)c3c(O)ccc4nc[nH]c34)CC2)c(=O)c2ncc(C)nc2n1CC(=O)Nc1ccc(C(F)(F)F)cc1Cl` [I-71, N-(2-chloro-4-(trifluoromethyl)phenyl)-2-(6-ethyl-7-(4-(6-hydroxy-1H-benzo[d]imidazole-7-carbonyl)piperazin-1-yl)-3-methyl-8-oxopyrido[2,3-b]pyrazin-5(8H)-yl)acetamide], for which the IC50 in assay [1] was 5 to 50 nM. Besides, in assay [2] (Homo sapiens, HCT-116, 24 h), the EC50 was more than 5000 nM.
Turning to `CCc1c(N2CCN(C(=O)c3c(OC)ncc(C)c3O)[C@@H]3CCC[C@@H]32)c(=O)c2nc(N(C)C)cnc2n1CC(=O)Nc1ccc(C(F)(F)F)cc1Cl` (single isomer, unassigned) [I-251, N-(2-chloro-4-(trifluoromethyl)phenyl)-2-(2-(dimethylamino)-6-ethyl-7-(4-(4-hydroxy-2-methoxy-5-methylnicotinoyl)octahydro-1H-cyclopenta[b]pyrazin-1-yl)-8-oxopyrido[2,3-b]pyrazin-5(8H)-yl)acetamide], the IC50 in assay [1] was in the range of 5 to 50 nM. Also, the EC50 in assay [2] (Homo sapiens, HCT-116, 24 h) was less than 500 nM.
The like results for `CCc1c(N2CCN(C(=O)c3c(O)cccc3O)CC2)c(=O)c2ncc(C)nc2n1CC(=O)Nc1ccc(C(F)(F)F)cc1Cl` [I-67, N-(2-chloro-4-(trifluoromethyl)phenyl)-2-(7-(4-(2,6-dihydroxybenzoyl)piperazin-1-yl)-6-ethyl-3-methyl-8-oxopyrido[2,3-b]pyrazin-5(8H)-yl)acetamide] were, in that order, 5 to 50 nM and more than 5000 nM.
As for `CCc1c(N2CCN(C(=O)c3ncnc(C)c3O)CC2)c(=O)c2nc(C(=O)N(C)C)cnc2n1CC(=O)Nc1ccc(C(F)(F)F)cc1Cl` [I-48, 5-(2-((2-chloro-4-(trifluoromethyl)phenyl)amino)-2-oxoethyl)-6-ethyl-7-(4-(5-hydroxy-6-methylpyrimidine-4-carbonyl)piperazin-1-yl)-N,N-dimethyl-8-oxo-5,8-dihydropyrido[2,3-b]pyrazine-2-carboxamide], the IC50 in assay [1] was 100 to 500 nM. Moreover, the EC50 in assay [2] (Homo sapiens, HCT-116, 24 h) was more than 5000 nM.
The like results for `CCc1c(N2CCN(C(=O)c3ncnc(C)c3O)[C@H]3CC[C@@H]32)c(=O)c2nc(C=C(C)C)nnc2n1CC(=O)Nc1ccc(C(F)(F)F)cc1Cl` [I-111, N-(2-chloro-4-(trifluoromethyl)phenyl)-2-(7-ethyl-6-((1S,6S)-5-(5-hydroxy-6-methylpyrimidine-4-carbonyl)-2,5-diazabicyclo[4.2.0]octan-2-yl)-3-(2-methylprop-1-en-1-yl)-5-oxopyrido[3,2-e] [1,2,4]triazin-8(5H)-yl)acetamide] were, in that order, not above 5 nM and less than 500 nM.
On to `CCc1c(N2CCN(C(=O)c3ncnc(C)c3O)CC2)c(=O)c2nc(C=C3CC(C)(O)C3)cnc2n1CC(=O)Nc1ccc(C(F)(F)F)cc1Cl` (stereo not drawn) [I-180, N-[2-chloro-4-(trifluoromethyl)phenyl]-2-{6-ethyl-2-[(3-hydroxy-3-methylcyclobutylidene)methyl]-7-[4-(5-hydroxy-6-methylpyrimidine-4-carbonyl)piperazin-1-yl]-8-oxo-5H,8H-pyrido[2,3-b]pyrazin-5-yl}acetamide], for which, in assay [1], the IC50 fell in the range of 5 to 50 nM. In assay [2] (Homo sapiens, HCT-116, 24 h), the EC50 is 500 to 2000 nM.
With `CCc1c(N2CCN(C(=O)c3ncnc(C)c3O)CC2)c(=O)c2nc(N3CCCC34CC4)cnc2n1CC(=O)Nc1ccc(C(F)(F)F)cc1Cl` [I-224, 2-(2-{4-azaspiro[2.4]heptan-4-yl}-6-ethyl-7-[4-(5-hydroxy-6-methylpyrimidine-4-carbonyl)piperazin-1-yl]-8-oxo-5H,8H-pyrido[2,3-b]pyrazin-5-yl)-N-[2-chloro-4-(trifluoromethyl)phenyl]acetamide], the IC50 in assay [1] was 5 to 50 nM. Moreover, the EC50 in assay [2] (Homo sapiens, HCT-116, 24 h) was in the range of 2000 to 5000 nM.
As for `CCc1c(N2CCN(C(=O)c3ncnc(C)c3O)[C@@H](C)[C@H]2C)c(=O)c2nc(N(C)C)cnc2n1CC(=O)Nc1ccc(C(F)(F)F)cc1Cl` (single isomer, unassigned) [I-196, N-(2-chloro-4-(trifluoromethyl)phenyl)-2-(2-(dimethylamino)-6-ethyl-7-(4-(5-hydroxy-6-methylpyrimidine-4-carbonyl)-2,3-dimethylpiperazin-1-yl)-8-oxopyrido[2,3-b]pyrazin-5(8H)-yl)acetamide], the IC50 in assay [1] is 5 to 50 nM. In addition, the EC50 in assay [2] (Homo sapiens, HCT-116, 24 h) fell in the range of 500 to 2000 nM.
In the case of `CCc1c(N2CCN(C(=O)c3ncnc(C)c3O)CC2)c(=O)c2nc(N3C[C@@H]4[C@H](C3)[C@H]4N(C)C)cnc2n1CC(=O)Nc1ccc(C(F)(F)F)cc1Cl` [I-155, N-[2-chloro-4-(trifluoromethyl)phenyl]-2-{2-[(1R,5S,6S)-6-(dimethylamino)-3-azabicyclo[3.1.0]hexan-3-yl]-6-ethyl-7-[4-(5-hydroxy-6-methylpyrimidine-4-carbonyl)piperazin-1-yl]-8-oxo-5H,8H-pyrido[2,3-b]pyrazin-5-yl}acetamide], in assay [1], the IC50 fell in the range of 50 to 100 nM. In addition, the EC50 in assay [2] (Homo sapiens, HCT-116, 24 h) was more than 5000 nM.
The corresponding values for `CCc1c(N2CCN(C(=O)c3ncnc(C)c3O)CC2)c(=O)c2nc(N(C)C3(C)CC3)cnc2n1CC(=O)Nc1ccc(C(F)(F)F)cc1Cl` [I-205, N-[2-chloro-4-(trifluoromethyl)phenyl]-2-{6-ethyl-7-[4-(5-hydroxy-6-methylpyrimidine-4-carbonyl)piperazin-1-yl]-2-[methyl(1-methylcyclopropyl)amino]-8-oxo-5H,8H-pyrido[2,3-b]pyrazin-5-yl}acetamide] are 5 to 50 nM and less than 500 nM.
The corresponding values for `CCc1c(N2CCN(C(=O)c3ncnc(C)c3O)CC2)c(=O)c2nc(Cl)cnc2n1CC(=O)Nc1ccc(C(F)(F)F)cc1Cl` [I-19, N-(2-chloro-4-(trifluoromethyl)phenyl)-2-(2-chloro-6-ethyl-7-(4-(5-hydroxy-6-methylpyrimidine-4-carbonyl)piperazin-1-yl)-8-oxopyrido[2,3-b]pyrazin-5(8H)-yl)acetamide] are 5 to 50 nM and more than 5000 nM.
For `CCc1c(N2CCN(C(=O)c3ncnc(C)c3O)CC2)c(=O)c2nc(N(C)CCN(C)C)cnc2n1CC(=O)Nc1ccc(C(F)(F)F)cc1Cl` [I-154, N-[2-chloro-4-(trifluoromethyl)phenyl]-2-(2-{[2-(dimethylamino)ethyl](methyl)amino}-6-ethyl-7-[4-(5-hydroxy-6-methylpyrimidine-4-carbonyl)piperazin-1-yl]-8-oxo-5H,8H-pyrido[2,3-b]pyrazin-5-yl)acetamide], the IC50 in assay [1] was more than 500 nM. Further, the EC50 in assay [2] (Homo sapiens, HCT-116, 24 h) is more than 5000 nM.
In the case of `CCc1c(N2CCN(C(=O)c3ncnc(C)c3O)[C@H]3CC[C@@H]32)c(=O)c2nc(NC)cnc2n1CC(=O)Nc1ccc(C(F)(F)F)cc1Cl` [I-227, N-[2-chloro-4-(trifluoromethyl)phenyl]-2-{6-ethyl-7-[(1S,6S)-5-(5-hydroxy-6-methylpyrimidine-4-carbonyl)-2,5-diazabicyclo[4.2.0]octan-2-yl]-2-(methylamino)-8-oxo-5H,8H-pyrido[2,3-b]pyrazin-5-yl}acetamide], the IC50 in assay [1] is not above 5 nM. The EC50 in assay [2] was less than 500 nM.
Take `CCc1c(N2CCN(C(=O)c3c(C#N)cnc(C)c3O)CC2)c(=O)c2nc(C)cnc2n1CC(=O)Nc1ccc(C(F)(F)F)cc1Cl` [I-158, N-[2-chloro-4-(trifluoromethyl)phenyl]-2-{7-[4-(5-cyano-3-hydroxy-2-methylpyridine-4-carbonyl)piperazin-1-yl]-6-ethyl-2-methyl-8-oxo-5H,8H-pyrido[2,3-b]pyrazin-5-yl}acetamide]: the IC50 in assay [1] fell in the range of 5 to 50 nM. In assay [2] (Homo sapiens, HCT-116, 24 h), the EC50 was more than 5000 nM.
